# Measurements as given in paper PMC2191575 (The Journal of Experimental Medicine, 1994).
# Tested on: chimeric human/mouse MHC class II molecules
# Type: binding
substance,measurement,value
influenza nucleoprotein (383-395): DR-restricted synthetic peptide (SRYWAIRTRSGGN),binding to chimeric MHC class II molecules,Specific binding was also observed
